According to patent US7094909B2, “HIV protease inhibitors, compositions containing the same, their pharmaceutical uses and materials for their synthesis” (priority 2001, dated 2006):

Legend:
[1] = tested on: HIV-1 (HIV-1 RF, HIV-1 NL4-3) in CEM-SS / MT-2 cells; experiment: Cytopathic effect (CPE) inhibition assay (XTT/MTT dye reduction); assay type: cell-based; conditions: Human immunodeficiency virus 1, NL43; read-out: Ave CPE EC50
Summary of the method: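 CEM-SS or MT-2 cells were infected with HIV-1 RF or NL4-3 (moi 0.025–0.819) and plated at 2×10^4 cells/well with half-log compound dilutions for 6 days. Viability was read by XTT formazan at 450 nm after 4 h. EC50 restores formazan to 50% of uninfected untreated cells, CC50 halves it in uninfected cells, and TI = CC50/EC50.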

[2] = biological target: T1, HIV-1 protease (Q7S mutant form) (Human immunodeficiency virus type 1 group M subtype B, UniProt P04585, Q495S); experiment: HIV-1 Protease RET assay; assay type: biochemical; conditions: Ave. Ki (nM), RET assay, Q7S enzyme, Morrison tight binding fit
T1 construct: made in house
Summary of the method: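 Q7S HIV-1 protease, refolded from urea, 2 nM active dimer with 5 μM EDANS/DABCYL peptide cleaved at Tyr-Pro; fluorescence 340/490 nm. 12 min at 37 °C in 0.1M sodium acetate pH 4.8, 1M NaCl, 10% DMSO. Ki from Morrison tight-binding fit.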

C#CCOC(=O)N[C@@H](Cc1ccccc1)[C@H](O)C(=O)N1CSC(C)(C)[C@H]1C(=O)NCc1c(F)cccc1F [Example B51, {1-Benzyl-3-[4-(2,6-difluoro-benzylcarbamoyl)-5,5-dimethyl-thiazolidin-3-yl]-2-hydroxy-3-oxo-propyl}-carbamic acid prop-2-ynyl]
EC50 [1]: > 3200 nM | Ki [2]: 0.99 nM

C#CCOC(=O)N[C@@H](Cc1ccccc1)[C@H](O)C(=O)N1CSC(C)(C)[C@H]1C(=O)NCc1ccccc1C(F)(F)F [Example B54, {1-Benzyl-3-[5,5-dimethyl-4-(2-trifluoromethyl-benzylcarbamoyl)-thiazolidin-3-yl]-2-hydroxy-3-oxo-propyl}-carbamic acid prop-2-ynyl ester]
EC50 [1]: 1660 nM | Ki [2]: 2.3 nM

Cc1ccccc1CNC(=O)[C@H]1N(C(=O)[C@@H](O)[C@H](Cc2ccccc2)NC(=O)NCc2ccccc2)CSC1(C)C [Example B59, 3-[(2S,3S)-3-(3-Benzyl-ureido)-2-hydroxy-4-phenyl-butyryl]-5,5-dimethyl-thiazolidine-4-carboxylic acid 2-methyl-benzylamide]
EC50 [1]: 1820 nM | Ki [2]: 2.1 nM

COc1ccc(CNC(=O)N[C@@H](Cc2ccccc2)[C@H](O)C(=O)N2CSC(C)(C)[C@H]2C(=O)NCc2ccccc2C)cc1 [Example B60, 3-{(S)-2-Hydroxy-3-[3-(4-methoxy-benzyl)-ureido]-4phenyl-butyryl}-5,5-dimethyl-thiazolidine-4-carboxylic acid 2-methyl-benzylamide]
EC50 [1]: > 3200 nM | Ki [2]: 1.1 nM

C#CCOC(=O)N[C@@H](Cc1ccccc1)[C@H](O)C(=O)N1CSC(C)(C)[C@H]1C(=O)NCc1ccc(OC)cc1 [Example B64, {(1S,2S)-1-Benzyl-2-hydroxy-3-[4-(4-methoxy-benzylcarbamoyl)-5,5-dimethyl-thiazolidin-3-yl]-3-oxo-propyl}-carbamic acid prop-2-ynyl ester]
EC50 [1]: 1600 nM | Ki [2]: 0.53 nM

CCC(C)C(=O)NC(Cc1ccccc1)C(O)C(=O)N1CSC(C)(C)[C@H]1C(=O)NCc1ccccc1C (stereo partly drawn) [Example B65, 3-[(2S,3S)-2-Hydroxy-3-((S)-2-methyl-butyrylamino)-4-phenyl-butyryl]-5,5-dimethyl-thiazolidine-4-carboxylic acid 2-methyl-benzylamide]
EC50 [1]: 1640 nM | Ki [2]: 4.9 nM

C#CCOC(=O)N[C@@H](Cc1ccccc1)[C@H](O)C(=O)N1CSC(C)(C)[C@H]1C(=O)NCc1ccncc1 [Example B67, ((1S,2S)-1-Benzyl-3-{5,5-dimethyl-4-[(pyridin-4-ylmethyl)-carbamoyl]-thiazolidin-3-yl}-2-hydroxy-3-oxo-propyl)-carbamic acid prop-2-ynyl ester]
EC50 [1]: > 3200 nM | Ki [2]: 11.4 nM

Cc1ccccc1C(=O)N[C@@H](Cc1ccccc1)[C@H](O)C(=O)N1CSC(C)(C)[C@H]1C(=O)N[C@H]1CCc2ccccc21 [Example B78, (R)-3-{(2S,3S)-2-Hydroxy-4-phenyl-3-[(1-o-tolyl-methanoyl)-amino]-butanoyl}-5,5-dimethyl-thiazolidine-4-carboxylic acid (S)-indan-1-ylamide]
EC50 [1]: 557 nM | Ki [2]: 0.18 nM

Cc1ccccc1C(=O)N[C@@H](Cc1ccccc1)[C@H](O)C(=O)N1CSC(C)(C)[C@H]1C(=O)NCc1cccs1 [Example B79, (R)-3-{(2S,3S)-2-Hydroxy-4phenyl-3-[(1-o-tolyl-methanoyl)-amino]-butanoyl}-5,5-dimethyl-thiazolidine-4-carboxylic acid (thiophen-2-ylmethyl)-amide]
EC50 [1]: 530 nM | Ki [2]: 0.78 nM

Cc1c(F)cccc1C(=O)N[C@@H](Cc1ccccc1)[C@H](O)C(=O)N1CSC(C)(C)[C@H]1C(=O)N[C@@H]1C=CCCC1 [Example B81, (R)-3-((2S,3S)-3-{[1-(3-Fluoro-2-methyl-phenyl)-methanoyl]-amino}-2-hydroxy-4-phenyl-butanoyl)-5,5-dimethyl-thiazolidine-4-carboxylic acid (S)-cyclohex-2-enylamide]
EC50 [1]: 878 nM | Ki [2]: 0.35 nM

Cc1c(F)cccc1C(=O)N[C@@H](Cc1ccccc1)[C@H](O)C(=O)N1CSC(C)(C)[C@H]1C(=O)N[C@H]1CCc2ccccc21 [Example B82, (R)-3-((2S,3S)-3-{[1-(3-Fluoro-2-methyl-phenyl)-methanoyl]-amino}-2-hydroxy-4-phenyl-butanoyl)-5,5-dimethyl-thiazolidine-4-carboxylic acid (S)-indan-1-ylamide]
EC50 [1]: 1290 nM | Ki [2]: 0.19 nM

Cc1ccccc1CNC(=O)[C@H]1N(C(=O)[C@@H](O)[C@H](Cc2ccccc2)NC(=O)CCCO)CSC1(C)C [Example B85]
EC50 [1]: 363 nM | Ki [2]: 1.3 nM

Cc1c(O)cccc1C(=O)N[C@@H](Cc1ccccc1)[C@H](O)C(=O)N1CC(F)(F)C[C@H]1C(=O)N[C@H]1CCCc2ccccc21 [Example C3, (S)-4,4-Difluoro-1-((2S,3S)-2-hydroxy-3-{[1-(3-hydroxy-2-methyl-phenyl)-methanoyl]-amino}-4-phenyl-butanoyl)-pyrrolidine-2-carboxylic acid (1,2,3,4-tetrahydro-naphthalen-1-yl)-amide]
EC50 [1]: 486 nM | Ki [2]: 0.16 nM

CCCNC(=O)[C@@H]1CC(F)(F)CN1C(=O)[C@@H](O)[C@H](Cc1ccccc1)NC(=O)c1cccc(O)c1C [Example C7, 4,4-Difluoro-1-[2-hydroxy-3-(3-hydroxy-2-methyl-benzoylamino)-4-phenyl-butyryl]-pyrrolidine-2-carboxylic acid propylamide]
EC50 [1]: 347 nM | Ki [2]: 3 nM

Cc1c(O)cccc1C(=O)N[C@@H](Cc1ccccc1)[C@H](O)C(=O)N1CC(F)(F)C[C@H]1C(=O)NCc1ccccc1Cl [Example C10, 4,4-Difluoro-1-[2-hydroxy-3-(3-hydroxy-2-methyl-benzoylamino)-4-phenyl-butyryl]-pyrrolidine-2-carboxylic acid 2-chloro-benzylamide]
EC50 [1]: 1290 nM | Ki [2]: 1.5 nM

Cc1c(O)cccc1C(=O)N[C@@H](Cc1ccccc1)[C@H](O)C(=O)N1CC(F)(F)C[C@H]1C(=O)NCc1ccc2c(c1)OCO2 [Example C11, 4,4-Difluoro-1-[2-hydroxy-3-(3-hydroxy-2-methyl-benzoylamino)-4-phenyl-butyryl]-pyrrolidine-2-carboxylic acid (benzo[1,3]dioxol-5-ylmethyl)-amide]
EC50 [1]: 1310 nM | Ki [2]: 2.8 nM

COc1cccc(CNC(=O)[C@@H]2CC(F)(F)CN2C(=O)[C@@H](O)[C@H](Cc2ccccc2)NC(=O)c2cccc(O)c2C)c1 [Example C12, (S)-4,4-Difluoro-1-[(2S,3S)-2-hydroxy-3-(3-hydroxy-2-methyl-benzoylamino)-4-phenyl-butyryl]-pyrrolidine-2-carboxylic acid 3-methoxy-benzylamide]
EC50 [1]: 1770 nM | Ki [2]: 2.7 nM

COc1ccc(CNC(=O)[C@@H]2CC(F)(F)CN2C(=O)[C@@H](O)[C@H](Cc2ccccc2)NC(=O)c2cccc(O)c2C)cc1 [Example C13, (S)-4,4-Difluoro-1-[(2S,3S)-2-hydroxy-3-(3-hydroxy-2-methyl-benzoylamino)-4-phenyl-butyryl]-pyrrolidine-2-carboxylic acid 4-methoxy-benzylamide]
EC50 [1]: 1180 nM | Ki [2]: 0.59 nM
